Reference: ChEMBL document CHEMBL5365464, “Structure-Based Optimization of the Third Generation Type II Macrocycle TRK Inhibitors with Improved Activity against Solvent-Front, xDFG, and Gatekeeper Mutations” (J Med Chem, 2023)

How the values were obtained:
[1] = target: High affinity nerve growth factor receptor (Homo sapiens, UniProt P04629, G667C); experiment: Inhibition of TRKA G667C mutant (unknown origin) expressed in baculovirus expression system Sf9 cells using Ser/Thr 06 as peptide substrate incubated for 1 hr in presence of ATP by FRET based Z-LYTE assay
BaF3 [2] = experiment: Antiproliferative activity against mouse BaF3 cells harbouring CD74-NTRK1 G595R mutant fusion protein incubated for 3 days by CCK8 method; format: functional, cell-based; settings: BaF3, 72 h
[3] = target: High affinity nerve growth factor receptor (Homo sapiens, UniProt P04629); experiment: Inhibition of N-terminal hexa his tagged TRKA (485 to 795 residues) (unknown origin) expressed in baculovirus expression system Sf9 cells using Ser/Thr 06 as peptide substrate incubated for 1 hr in presence of ATP by FRET based Z-LYTE assay
BaF3 [4] = experiment: Antiproliferative activity against mouse BaF3 cells harbouring ETV6-NTRK3 fusion protein incubated for 3 days by CCK8 method; settings: BaF3, 72 h
[5] = target: NT-3 growth factor receptor (Homo sapiens, UniProt Q16288); experiment: Inhibition of TRKC (unknown origin) using Ser/Thr 06 as peptide substrate incubated for 1 hr in presence of ATP by FRET based Z-LYTE assay
BaF3 [6] = experiment: cells; settings: Mus musculus, BaF3, 72 h
[7] = target: High affinity nerve growth factor receptor (Homo sapiens, UniProt P04629, G595R); experiment: Inhibition of TRKA G595R mutant (unknown origin) expressed in baculovirus expression system Sf9 cells using Ser/Thr 06 as peptide substrate incubated for 1 hr in presence of ATP by FRET based Z-LYTE assay
BaF3 [8] = experiment: Antiproliferative activity against mouse BaF3 cells harbouring CD74-NTRK1 fusion protein incubated for 3 days by CCK8 method; settings: BaF3, 72 h
BaF3 [9] = experiment: Antiproliferative activity against mouse BaF3 cells harbouring TRKA-F589L fusion protein incubated for 3 days by CCK8 method; settings: BaF3, 72 h
BaF3 [10] = experiment: Antiproliferative activity against mouse BaF3 cells harbouring CD74-[…] mutant fusion protein incubated for 3 days by CCK8 method; format: functional, cell-based; settings: BaF3, 72 h
BaF3 [11] = experiment: cells; settings: Mus musculus, BaF3, 72 h; remark: listed apart in the source
BaF3 [12] = experiment: Antiproliferative activity against mouse BaF3 cells harbouring ETV6-TRKB G709C mutant incubated for 3 days by CCK8 method; settings: BaF3, 72 h
BaF3 [13] = experiment: Antiproliferative activity against mouse BaF3 cells harbouring ETV6-TRKC V601M mutant incubated for 3 days by CCK8 method; settings: BaF3, 72 h
BaF3 [14] = experiment: Antiproliferative activity against mouse BaF3 cells harbouring ETV6-TRKC G696C mutant incubated for 3 days by CCK8 method; settings: BaF3, 72 h
BaF3 [15] = experiment: Antiproliferative activity against mouse BaF3 cells harbouring ETV6-TRKB G639R mutant incubated for 3 days by CCK8 method; settings: BaF3, 72 h
BaF3 [16] = experiment: Antiproliferative activity against mouse BaF3 cells harbouring CD74-TRKA G6678 mutant incubated for 3 days by CCK8 method; settings: BaF3, 72 h
BaF3 [17] = experiment: Antiproliferative activity against mouse BaF3 cells harbouring CD74-TRKA G667A mutant incubated for 3 days by CCK8 method; settings: BaF3, 72 h
BaF3 [18] = experiment: cells; settings: Mus musculus, BaF3, 72 h; remark: listed apart in the source
BaF3 [19] = experiment: Antiproliferative activity against mouse BaF3 cells harbouring ETV6-TRKB F633L mutant incubated for 3 days by CCK8 method; settings: BaF3, 72 h
BaF3 [20] = experiment: Antiproliferative activity against mouse BaF3 cells harbouring ETV6-TRKC G696A mutant incubated for 3 days by CCK8 method; settings: BaF3, 72 h
BaF3 [21] = experiment: Antiproliferative activity against mouse BaF3 cells harbouring ETV6-TRKC G623R mutant incubated for 3 days by CCK8 method; settings: BaF3, 72 h
BaF3 [22] = experiment: Antiproliferative activity against mouse BaF3 cells harbouring ETV6-TRKC G623E mutant incubated for 3 days by CCK8 method; settings: BaF3, 72 h
BaF3 [23] = experiment: Antiproliferative activity against mouse BaF3 cells harbouring ETV6-TRKB V617M mutant incubated for 3 days by CCK8 method; settings: BaF3, 72 h
BaF3 [24] = experiment: Antiproliferative activity against mouse BaF3 cells incubated for 3 days by CCK8 method; settings: BaF3, 72 h
BaF3 [25] = experiment: Antiproliferative activity against mouse BaF3 cells harbouring CD74-TRKA V573M mutant incubated for 3 days by CCK8 method; settings: BaF3, 72 h
BaF3 [26] = experiment: Antiproliferative activity against mouse BaF3 cells harbouring ETV6-TRKC G6968 mutant incubated for 3 days by CCK8 method; settings: BaF3, 72 h
BaF3 [27] = experiment: Antiproliferative activity against mouse BaF3 cells harbouring ETV6-TRKC F617L mutant incubated for 3 days by CCK8 method; settings: BaF3, 72 h
BaF3 [28] = experiment: Antiproliferative activity against mouse BaF3 cells harbouring wild type ETV6-TRKB incubated for 3 days by CCK8 method; settings: BaF3, 72 h

Chain of High affinity nerve growth factor receptor (Homo sapiens, UniProt P04629, G667C) (P04629 33-796 G667C limits assumed): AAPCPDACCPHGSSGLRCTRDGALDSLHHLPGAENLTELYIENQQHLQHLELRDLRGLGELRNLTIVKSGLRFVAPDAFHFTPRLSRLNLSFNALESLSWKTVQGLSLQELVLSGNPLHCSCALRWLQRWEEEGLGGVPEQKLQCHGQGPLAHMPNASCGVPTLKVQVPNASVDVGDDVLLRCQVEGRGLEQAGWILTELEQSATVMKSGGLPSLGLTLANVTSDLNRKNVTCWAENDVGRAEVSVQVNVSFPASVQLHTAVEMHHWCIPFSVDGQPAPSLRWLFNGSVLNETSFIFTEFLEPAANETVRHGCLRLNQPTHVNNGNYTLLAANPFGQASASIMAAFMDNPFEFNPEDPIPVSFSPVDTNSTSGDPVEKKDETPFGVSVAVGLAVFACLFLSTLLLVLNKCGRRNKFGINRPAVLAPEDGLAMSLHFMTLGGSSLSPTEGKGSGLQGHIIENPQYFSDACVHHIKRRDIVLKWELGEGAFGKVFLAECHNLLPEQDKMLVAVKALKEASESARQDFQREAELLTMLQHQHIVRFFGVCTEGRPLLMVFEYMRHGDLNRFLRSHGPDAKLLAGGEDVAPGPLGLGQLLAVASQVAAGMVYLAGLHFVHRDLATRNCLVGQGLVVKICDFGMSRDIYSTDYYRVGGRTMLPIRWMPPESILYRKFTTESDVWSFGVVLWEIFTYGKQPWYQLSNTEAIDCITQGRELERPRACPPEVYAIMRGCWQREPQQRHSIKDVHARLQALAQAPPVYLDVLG
Chain of High affinity nerve growth factor receptor (Homo sapiens, UniProt P04629, G595R) (P04629 33-796 G595R limits assumed): as the sequence (P04629 33-796 G667C limits assumed) above, with G563R, C635G counted along it
Chain of High affinity nerve growth factor receptor (Homo sapiens, UniProt P04629) (P04629 whole entry, the tested form may be a part): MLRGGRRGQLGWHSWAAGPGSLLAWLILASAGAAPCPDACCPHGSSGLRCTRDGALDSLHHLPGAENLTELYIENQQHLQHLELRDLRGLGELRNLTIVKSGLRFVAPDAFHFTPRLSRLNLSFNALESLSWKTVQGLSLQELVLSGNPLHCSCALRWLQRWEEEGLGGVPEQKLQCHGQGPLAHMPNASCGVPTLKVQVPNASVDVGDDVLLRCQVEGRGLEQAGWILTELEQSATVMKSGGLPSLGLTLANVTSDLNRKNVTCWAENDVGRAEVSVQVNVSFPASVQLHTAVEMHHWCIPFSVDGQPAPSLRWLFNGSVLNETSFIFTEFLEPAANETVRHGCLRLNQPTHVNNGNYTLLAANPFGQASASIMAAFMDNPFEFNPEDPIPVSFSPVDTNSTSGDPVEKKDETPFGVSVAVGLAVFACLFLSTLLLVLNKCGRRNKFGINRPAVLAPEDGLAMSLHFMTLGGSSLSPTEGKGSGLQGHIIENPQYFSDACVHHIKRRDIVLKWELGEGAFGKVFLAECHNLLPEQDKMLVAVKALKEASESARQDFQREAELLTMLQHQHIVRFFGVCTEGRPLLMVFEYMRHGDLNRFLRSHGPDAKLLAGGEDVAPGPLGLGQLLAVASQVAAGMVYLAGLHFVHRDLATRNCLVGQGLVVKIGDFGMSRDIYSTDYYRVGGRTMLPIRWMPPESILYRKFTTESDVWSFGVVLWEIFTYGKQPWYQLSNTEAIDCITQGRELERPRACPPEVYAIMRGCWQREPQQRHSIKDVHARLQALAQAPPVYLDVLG
Chain of NT-3 growth factor receptor (Q16288 whole entry): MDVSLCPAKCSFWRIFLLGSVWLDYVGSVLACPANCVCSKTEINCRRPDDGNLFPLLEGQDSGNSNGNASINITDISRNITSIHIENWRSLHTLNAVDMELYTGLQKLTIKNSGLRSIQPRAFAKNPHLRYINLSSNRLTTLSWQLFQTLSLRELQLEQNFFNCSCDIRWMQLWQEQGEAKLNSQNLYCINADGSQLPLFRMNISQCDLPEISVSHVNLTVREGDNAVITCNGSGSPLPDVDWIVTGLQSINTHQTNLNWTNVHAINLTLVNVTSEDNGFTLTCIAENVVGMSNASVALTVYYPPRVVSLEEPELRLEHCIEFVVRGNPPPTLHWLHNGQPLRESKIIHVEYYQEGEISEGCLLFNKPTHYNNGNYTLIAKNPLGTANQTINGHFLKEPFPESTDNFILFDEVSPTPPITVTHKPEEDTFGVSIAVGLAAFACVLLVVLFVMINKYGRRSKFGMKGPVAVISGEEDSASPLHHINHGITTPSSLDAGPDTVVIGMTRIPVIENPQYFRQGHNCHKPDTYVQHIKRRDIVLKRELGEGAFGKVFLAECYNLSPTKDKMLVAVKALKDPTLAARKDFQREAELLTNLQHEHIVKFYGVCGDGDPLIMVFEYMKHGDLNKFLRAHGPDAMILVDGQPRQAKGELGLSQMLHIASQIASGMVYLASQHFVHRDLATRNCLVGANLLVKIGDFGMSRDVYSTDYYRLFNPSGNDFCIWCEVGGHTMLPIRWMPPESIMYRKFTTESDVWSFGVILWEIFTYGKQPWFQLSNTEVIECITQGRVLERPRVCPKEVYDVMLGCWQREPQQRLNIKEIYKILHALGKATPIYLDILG

Row | SMILES | IC50 [1] [nM] | IC50 (BaF3 [2]) [nM] | IC50 [3] [nM] | IC50 (BaF3 [4]) [nM] | IC50 [5] [nM] | IC50 (BaF3 [6]) [nM] | IC50 [7] [nM] | IC50 (BaF3 [8]) [nM] | IC50 (BaF3 [9]) [nM] | further results
1 | Cc1cn(-c2cc(NC(=O)c3cc4cc(c3C)C#Cc3cnc5ccc(nn35)NCCN(C)C(=O)CCCCO4)cc(C(F)(F)F)c2)cn1 | 7.47 | 172 | 17.4 | 17.1 | 5.95 | 5.51 | 124 | 33.7 |  | 
2 | Cc1c2cc(cc1C(=O)Nc1cc(Cl)cc(C(F)(F)F)c1)OCCCCCCCNC(=O)c1ccc3ncc(n3n1)C#C2 | 8.08 |  | 39.8 |  |  |  | > 1000 |  |  | 
3 | Cc1c2cc(cc1NC(=O)Nc1ccc(Cl)c(C(F)(F)F)c1)OCCCCCCCNC(=O)c1ccc3ncc(n3n1)C#C2 |  |  |  |  | 42.4 |  |  |  |  | 
4 | Cc1cn(-c2cc(NC(=O)c3cc4cc(c3C)C#Cc3cnc5ccc(nn35)C(=O)NCCCCCCO4)cc(C(F)(F)F)c2)cn1 | 12.2 |  | 51.5 | 541 | 9.45 | 17.2 | 562 | 416 |  | 
5 | Cc1c2cc(cc1C(=O)Nc1cc(C(C)(C)C)nn1-c1ccc(Cl)cc1)OCCCCCCCNC(=O)c1ccc3ncc(n3n1)C#C2 | 14.6 |  | 164 | 70.2 | 13.5 | 10.2 | > 1000 | 103 |  | 
6 | Cc1c2cc(cc1C(=O)Nc1cc(CN3CCN(C)CC3)cc(C(C)C)c1)OCCCCCCCNC(=O)c1ccc3ncc(n3n1)C#C2 | 16.8 | 42.3 | 7.85 | 104 | 2.83 | 3.85 | 10.7 | 20.5 | 32.7 | IC50 (BaF3 [10]): 18.9 nM
7 | Cc1c2cc(cc1C(=O)Nc1cc(N3CCC(N4CCOCC4)CC3)cc(C(F)(F)F)c1)OCCCCCCCNC(=O)c1ccc3ncc(n3n1)C#C2 | 3.35 | 67.7 | 26.1 | 29.5 | 8.51 | 3.78 | 109 | 51.1 | > 1000 | 
8 | Cc1c2cc(cc1C(=O)Nc1cc(CN3CCCN(C)CC3)cc(C(F)(F)F)c1)OCCCCCCCNC(=O)c1ccc3ncc(n3n1)C#C2 | 2.79 | 48.5 | 10.2 | 48.4 | 4.05 | 1.26 | 39 | 6.74 | 8.68 | IC50 (BaF3 [10]): 48.1 nM
9 | Cc1c2cc(cc1C(=O)Nc1ccc(CN3CCN(C)CC3)c(C(F)(F)F)c1)OCCCCCCCNC(=O)c1ccc3ncc(n3n1)C#C2 | 3.55 |  | 15.1 | 3030 | 11.4 | 2.25 | > 1000 | 32.1 |  | 
10 | Cc1c2cc(cc1C(=O)Nc1cc(CN3CCN(C)CC3)cc(C(F)(F)F)c1)OCCCCCCCNC(=O)c1ccc3ncc(n3n1)C#C2 | 3.18 |  | 15.7 |  |  |  | 54.8 |  |  | 
11 | Cc1cn(-c2cc(NC(=O)c3cc4cc(c3C)C#Cc3cnc5ccc(nn35)NCCC(=O)N(C)CCCCO4)cc(C(F)(F)F)c2)cn1 | 5.83 |  | 21.1 |  |  |  | 91.8 |  |  | 
12 | Cc1cn(-c2cc(NC(=O)c3cc4cc(c3C)C#Cc3cnc5ccc(nn35)NCCNC(=O)CCCCO4)cc(C(F)(F)F)c2)cn1 | 8.21 | > 1000 | 24.8 | 202 | 7.06 | 40.9 | > 1000 | 271 |  | 
13 | Cc1c2cc(cc1C(=O)Nc1cc(CN3CCN(C)CC3)cc(C(C)(C)C)c1)OCCCCCCCNC(=O)c1ccc3ncc(n3n1)C#C2 | 3.06 | 65.6 | 19 | 161 | 5.22 | 5.96 | 30.6 | 34.5 | 45.4 | IC50 (BaF3 [10]): 12.2 nM
14 | Cc1cn(-c2cc(NC(=O)c3cc4cc(c3C)C#Cc3cnc5ccc(nn35)C(=O)NCCCCCO4)cc(C(F)(F)F)c2)cn1 | 124 |  | 58.1 | 140 | 20.3 | 8.54 | > 1000 | 134 |  | 
15 | Cc1cn(-c2cc(NC(=O)c3cc4cc(c3C)C#Cc3cnc5ccc(nn35)C(=O)NCCCCCCCCO4)cc(C(F)(F)F)c2)cn1 | 7.5 |  | 63.4 | 32.2 | 27.8 | 8.21 | > 1000 | 59.7 |  | 
16 | Cc1cn(-c2cc(NC(=O)c3cc4cc(c3C)C#Cc3cnc5ccc(nn35)NCCC(=O)NCCCCO4)cc(C(F)(F)F)c2)cn1 | 5.29 |  | 21 |  |  |  | 85.2 |  |  | 
17 | C[C@H]1CNC(=O)c2cnn3ccc(nc23)N[C@H](C)c2cc(F)ccc2O1 [REPOTRECTINIB] |  |  |  | 1.9 |  | 15.7 |  | 1.39 | 1.61 | IC50 (BaF3 [11]): 159 nM; IC50 (BaF3 [12]): 9.44 nM; IC50 (BaF3 [13]): 23.1 nM; IC50 (BaF3 [14]): 17 nM; IC50 (BaF3 [15]): 19.3 nM; IC50 (BaF3 [10]): 3.32 nM; IC50 (BaF3 [16]): 8.12 nM; IC50 (BaF3 [17]): 0.88 nM; IC50 (BaF3 [18]): 78.3 nM; IC50 (BaF3 [19]): 2.15 nM; IC50 (BaF3 [20]): 1.14 nM; IC50 (BaF3 [21]): 5.75 nM; IC50 (BaF3 [22]): 5.4 nM; IC50 (BaF3 [23]): 10.8 nM; IC50 (BaF3 [24]): 892 nM; IC50 (BaF3 [25]): 12.3 nM; IC50 (BaF3 [26]): 4.59 nM; IC50 (BaF3 [27]): 0.98 nM; IC50 (BaF3 [28]): 0.66 nM
18 | C[C@@H]1CCc2ncc(F)cc2[C@H]2CCCN2c2ccn3ncc(c3n2)C(=O)N1 [SELITRECTINIB] |  | 10.3 |  | 1.36 |  | 22.2 |  | 1.35 | 31.5 | IC50 (BaF3 [11]): > 1000 nM; IC50 (BaF3 [12]): 42 nM; IC50 (BaF3 [13]): 30.7 nM; IC50 (BaF3 [14]): 48.2 nM; IC50 (BaF3 [15]): 41.1 nM; IC50 (BaF3 [10]): 26.1 nM; IC50 (BaF3 [16]): 37 nM; IC50 (BaF3 [17]): 3.39 nM; IC50 (BaF3 [18]): 423 nM; IC50 (BaF3 [19]): 35.8 nM; IC50 (BaF3 [20]): 4.15 nM; IC50 (BaF3 [21]): 5.08 nM; IC50 (BaF3 [22]): 7.48 nM; IC50 (BaF3 [23]): 26.4 nM; IC50 (BaF3 [24]): > 1000 nM; IC50 (BaF3 [26]): 11 nM; IC50 (BaF3 [27]): 17.2 nM; IC50 (BaF3 [28]): 2.32 nM
